The text below walks through data of US7462228B2, “Water-base black ink composition and colored product” (Nippon Kayaku Kabushiki Kaisha, priority 2003, dated 2008).

In brackets after ≈: the same amount, converted by molar mass.

A short description of data set [1]: Maximum absorption wavelength in water (λmax). It counts as physicochemical.
The nature of data set [2]: Solubility in water of the dye compound. It counts as physicochemical.

`COc1ccc(N=Nc2c(S(=O)(=O)O)cc3cc(N=Nc4c(S(=O)(=O)O)cc5cc(S(=O)(=O)O)c(N=Nc6ccc7cc(S(=O)(=O)O)c(N=Nc8ccc(OC)cc8S(=O)(=O)O)c(O)c7c6)c(N)c5c4O)ccc3c2O)c(S(=O)(=O)O)c1` [No. 2-1]: in data set [1], the “maximum absorption wavelength in water (λmax)” value (“maximum absorption wavelength” below) turned out to be 647 nm. In data set [2], the solubility (usually how much of the substance goes into solution per volume) is ~100 mg/mL (≈ 80.1 mM).

With `COc1ccc(N=Nc2c(S(=O)(=O)O)cc3cc(N=Nc4c(S(=O)(=O)O)cc5cc(S(=O)(=O)O)c(N=Nc6cc7c(O)c(N=Nc8ccc(OC)cc8S(=O)(=O)O)c(S(=O)(=O)O)cc7cc6S(=O)(=O)O)c(N)c5c4O)ccc3c2O)c(S(=O)(=O)O)c1` [No. 2-2], the “maximum absorption wavelength” value in data set [1] was determined as 657 nm. The solubility in data set [2] was ≥ 100 mg/mL.

For `COc1ccc(N=Nc2c(S(=O)(=O)O)cc3cc(N=Nc4c(S(=O)(=O)O)cc5cc(S(=O)(=O)O)c(N=Nc6ccc7cc(S(=O)(=O)O)c(N=Nc8ccccc8S(=O)(=O)O)c(O)c7c6)c(N)c5c4O)ccc3c2O)c(S(=O)(=O)O)c1` [No. 2-3], the “maximum absorption wavelength” value in data set [1] worked out at 650 nm. Besides, the solubility in data set [2] is ≥ 100 mg/mL.

`COc1ccc(N=Nc2c(S(=O)(=O)O)cc3c(S(=O)(=O)O)c(N=Nc4c(S(=O)(=O)O)cc5cc(S(=O)(=O)O)c(N=Nc6ccc7c(O)c(N=Nc8ccc(OC)cc8S(=O)(=O)O)c(S(=O)(=O)O)cc7c6S(=O)(=O)O)c(O)c5c4N)ccc3c2O)c(S(=O)(=O)O)c1` [No. 2-4]: in data set [1], the “maximum absorption wavelength” value was found to be 559 nm. Moreover, the solubility in data set [2] is ≥ 100 mg/mL.

Turning to `COc1ccc(N=Nc2c(S(=O)(=O)O)cc3cc(N=Nc4c(S(=O)(=O)O)cc5cc(S(=O)(=O)O)c(N=Nc6ccc7cc(S(=O)(=O)O)c(N=Nc8ccc([N+](=O)[O-])cc8S(=O)(=O)O)c(O)c7c6)c(N)c5c4O)ccc3c2O)c(S(=O)(=O)O)c1` [No. 2-5], the “maximum absorption wavelength” value in data set [1] is 652 nm. In addition, the solubility in data set [2] was ≥ 100 mg/mL.

For the compound `Nc1c(N=Nc2ccc3cc(S(=O)(=O)O)c(N=Nc4ccccc4S(=O)(=O)O)c(O)c3c2)c(S(=O)(=O)O)cc2cc(S(=O)(=O)O)c(N=Nc3ccc4cc(S(=O)(=O)O)c(N=Nc5ccccc5S(=O)(=O)O)c(O)c4c3)c(O)c12` [No. 2-11], the “maximum absorption wavelength” value in data set [1] turned out to be 660 nm. The solubility in data set [2] was ≥ 100 mg/mL.

With `COc1ccc(N=Nc2c(S(=O)(=O)O)cc3c(S(=O)(=O)O)c(N=Nc4c(S(=O)(=O)O)cc5cc(S(=O)(=O)O)c(N=Nc6ccc7c(O)c(N=Nc8ccccc8S(=O)(=O)O)c(S(=O)(=O)O)cc7c6)c(O)c5c4N)ccc3c2O)c(S(=O)(=O)O)c1` [No. 2-28], the “maximum absorption wavelength” value in data set [1] is listed as 645 nm. Further, in data set [2], the solubility is ~100 mg/mL (≈ 77 mM).

On to `COc1ccc(N=Nc2c(S(=O)(=O)O)cc3cc(N=Nc4c(S(=O)(=O)O)cc5cc(S(=O)(=O)O)c(N=Nc6ccc7cc(S(=O)(=O)O)c(N=Nc8cc(S(=O)(=O)O)ccc8S(=O)(=O)O)c(O)c7c6)c(N)c5c4O)ccc3c2O)c(S(=O)(=O)O)c1` [No. 2-29], for which the “maximum absorption wavelength” value in data set [1] turned out to be 646 nm. Moreover, the solubility in data set [2] is ≥ 100 mg/mL.
